Values of other authors as cited in patent publication US20260275225A1, “LIQUID ALKYLATED PHENYL-ALPHA-NAP[…] REDUCED AQUATIC TOXICITY” (BASF SE, priority 2023, published 2026).
In brackets after ≈: the same amount, converted by molar mass.

Tested on: daphnids
Settings: OECD Test 202; from commercially available Amine A safety data sheets

Compound: c1ccc(Nc2cccc3ccccc23)cc1 [Amine A, n-Phenyl-1-naphthylamine]
- EC50: 0.32 µg/mL (≈ 1.46 µM)
